Tests used:
Type in all cases: ADME, organism-based
[1] = test system: Homo sapiens; test: (§1) Pharmacokinetic parameters for Estradiol on day 14, following multiple daily topical administration of Divigel 0.1 %,at steady state.; set-up: dose 0.5 g, dose 1 g, dose 0.25 g, route topical; conditions: in vivo, topical_or_ocular, dosed compound id 17, dosed compound name ESTRADIOL, regimen Multiple daily dose, sampling time1 Day 14 days, study dosing duration 14 days, tissue Plasma
[2] = as §1; set-up: dose 0.5 g, dose 1 g, dose 0.25 g, route topical; conditions: human, in vivo, topical or ocular, dose 0.25 g, dosed compound id 17, dosed compound name ESTRADIOL, regimen Multiple daily dose, sampling time1 Day 14 days, study dosing duration 14 days, tissue Plasma
[3] = Apparent terminal half-life of Estradiol evaluated after topical administration of Divigel.; conditions: human, in vivo, topical or ocular, dosed compound id 17, dosed compound name ESTRADIOL, tissue Plasma, read-out: t1/2(app) (converted)

For C[C@]12CC[C@@H]3c4ccc(O)cc4CC[C@H]3[C@@H]1CC[C@@H]2O [ESTRADIOL], the Cavg ([1]; dose 0.25 g) was 0.0098 ng/mL, the Cavg ([1]; dose 0.5 g) was 0.021 ng/mL and the Tmax ([1]; dose 0.5 g) was 10 h. For the same compound, the Cavg ([1]; dose 1 g) was 0.0305 ng/mL, the Tmax ([1]; dose 1 g) was 8 h and the Tmax [2] was 16 h. It also gave a half-life [3] of 10 h.
